Experimental data as given in patent US6534496B1, “Thermogenic composition and benzazepine thermogenics” (Takeda Chemical Industries, Inc., priority 1997, dated 2003).
Counter-ions that a name gives are not always drawn. Marks after values point to notes of the source that are not given here. Blank lines part the entries; values can stand above or below the compound they belong to.

Tests used:
[1] = Assay of reducing activity against weight gain of mice; assay type: in vivo, Male C57BL db/db mice
Protocol: Male C57BL db/db mice (CLEA Japan Inc., 10 weeks old) was pretreated for 7 days, with solid feed (CLEA Japan Inc., CE-2). After acclimatization, 0.3 mg/kg or 1.0 mg/kg of the compound which, was obtained in Example 23, was oraly administrated for 6 weeks. Body weight was measured after the final administration. After the measurement, total blood was successively drawn from the orbital vain, and the visceral fat was collected and its weight was measured. Statistics analysis was carried out with Dunnett anlalysis.

[2] = Assay of thermogenic activity in mice (Test Example 4); assay type: in vivo, male C57BL db/db mice; conditions: 1 mg/kg orally for 6 days; 24 hours-average regional temperature after the final administration; N=6
Protocol: The telethermometer (VltaView™, Mini-Mitter Co., Inc., USA) was inplanted subcutaneously border on the scapulae of male C57BL db/db mice (CLEA Japan Inc., N=6) anesthetized with ether. After 7 days acclimatization, 1 mg/kg of the compound which was obtained in Example 23, was orally administrated for 6 days. The 24 hours-average regional temperature after the final administration was measured. The control was administrated 0.5% methylcellulose solution.

[3] = system: murine preadipocyte line (3T3-L1); test: Assay of intraadipocyte cAMP increasing activity using murine preadipocyte line (3T3-L1) (Test Example 3, compounds of the Examples); assay type: cell-based; conditions: Table 14
Protocol: The intraadipocyte cAMP concentration-increasing activity of the above compound (I) was determined in an assay system using murine preadipocyte line 3T3-L1. Thus, 3T3-L1 preadipocytes were seeded onto a 96-well microtiter plate (10,000 cells/well) and cultured for 5-6 days until a confluent growth was formed. Thereafter, the adipocytes were further cultured for 72 hours. The test compound (I) (10^−5M, 10^−6M, 10^−7M, 10^−8M, and 10^−9M) was then added and the plate was allowed to sit at 37° C. for 40 minutes. The cells were washed with 3 portions of phosphate buffer at 4° C. (100 μl/well). Then, 0.1 N hydrochloric acid was added and the cells were denatured at 95° C. for 10 minutes. From each well, 25 μl was aspirated and dissolved in 75 μl of the assay a buffer included in Cyclic AMP Enzyme Immunoassay Kit (Kayman Chemical Company, USA). Using a 50 μl portion as the sample, cAMP was assayed using the above-mentioned Kit. Thus, using a 96-well microtiter plate precoated with anti-rabbit IgG mouse antibody, the above sample (50 μl) as well as the Cyclic AMP Tracer (50 μl) and Cyclic AMP Rabbit Antibody (50 μl) from the Kit were added and the plate was incubated at room temperature for 18 hours. After asperation, the plate was washed with 4 portions of the wash buffer (400 μl/well). Then, 200 μl of the color reagent included in the Kit was added to each well and the plate was incubated at room temperature with'shaking for 60 minutes. After completion of the reaction, the absorbance was measured at 405 nm to quantitate the cAMP.
Each value is the mean result of 4 experiments. The test for statistical significance against the CAMP concentration of the control experiment (the test compound not added) was carried out by the known ANOVA. (* p<05 vs. control)
Using the compounds obtained in Examples 1 through 130, as well as their salts, their intraadipocyte cAMP increasing activities were assayed by the same procedure as in Test Example 1.

[4] = second line of Example 23, dose printed 0.3 mg/kg, orally for 6 weeks
[5] = concentration of test compound 10^−5M
[6] = concentration of test compound 10^−6M
[7] = concentration of test compound 10^−7M
[8] = concentration of test compound 10^−8M
[9] = concentration of test compound 10^−9M

Compound: CC(=O)N1CCC(CCC(=O)c2ccc3c(c2)CCN(Cc2ccccc2)CC3)CC1.Cl [Example 23, 3-(1-Acetyl-4-piperidinyl)-1-[3-(phenylmethyl)-2,3,4,5-tetrahydro-1H-3-benzazepin-7-yl]-1-propanone Hydrochloride]
Amount of visceral fat (average ± S.E.) ([1]; 0.3 mg/kg orally for 6 weeks): 5.47 ± 0.36 g
Body weight, ending date of administration (average ± S.E.) ([1]; 0.3 mg/kg orally for 6 weeks): 40.87 ± 1.57 g
Body weight, starting date of administration (average ± S.E.) ([1]; 0.3 mg/kg orally for 6 weeks): 40.21 ± 0.48 g
Amount of visceral fat (average ± S.E.) ([1]; 1.0 mg/kg orally for 6 weeks): 5.13 ± 0.39 g
Body weight, ending date of administration (average ± S.E.) [1, 4]: 39.75 ± 1.55 g
Body weight, starting date of administration (average ± S.E.) [1, 4]: 40.40 ± 0.69 g
Regional temperature [2]: 35.54 °C

Compound: CC(=O)N1CCC(CCC(=O)c2cc3c4c(c2)CCN4C(=O)CC3)CC1 [Example 66, 8-[3-(1-Acetyl-4-piperidinyl)-1-oxopropyl]-1,2,5,6-tetrahydro-4H-pyrrolo[3,2,1-ij]quinolin-4-one]
melting point: 160 to 161 °C

Compound: CC(=O)N1CCC(CCC(=O)c2ccc3c4c2CCCC4CN3C(C)=O)CC1 (stereo not drawn) [Example 67, 3-(1-Acetyl-4-piperidinyl)-1-(1-acetyl-1,2,2a,3,4,5-hexahydrobenz[cd]indol-6-yl)-1-propanone]
melting point: 130 to 132 °C

Compound: CC(=O)N1CCC(CCC(=O)c2ccc3c(c2)CNc2ccccc2CC3)CC1 [Example 69, 3-(1-Acetyl-4-piperidinyl)-1-(5,6,11,12-tetrahydrodibenz[bf]azocin-8-yl)-1-propanone]
melting point: 153 to 155 °C

Compound: CC(=O)N1CCC(CCCC(=O)c2ccc3c(c2)CCN(Cc2ccccc2C)CC3)CC1 [Example 125, 4-(1-Acetyl-4-piperidinyl)-1-[3-[(2-methylphenyl)methyl]-2,3,4,5-tetrahydro-1H-3-benzazepin-7-yl]-1-butanone]
melting point: 94 to 95 °C

Compound: Cc1ccccc1CN1CCc2ccc(C(=O)CCCC3CCN(Cc4ccccc4C)CC3)cc2CC1 [Example 127, 4-[1-[(2-Methylphenyl)methyl]-4-piperidinyl]-1-[3-[(2-methylphenyl)methyl]-2,3,4,5-tetrahydro-1H-3-benzazepin-7-yl]-1-butanone Dihydrochloride]
cAMP [3, 5]: 554.0* pmol/ml
cAMP [3, 6]: 100.0* pmol/ml
cAMP [3, 7]: 10.1* pmol/ml
cAMP [3, 8]: 4.7 pmol/mL
cAMP [3, 9]: 3.6 pmol/mL

Compound: Cc1ccccc1CN1CCc2ccc(C(=O)CCCC3CCN(Cc4cccc(Cl)c4)CC3)cc2CC1 [Example 130]
cAMP [3, 5]: 430.6* pmol/ml
cAMP [3, 6]: 23.5* pmol/ml
cAMP [3, 7]: 5.7* pmol/ml
cAMP [3, 8]: 4.5 pmol/mL
cAMP [3, 9]: 3.4 pmol/mL

Compound: O=C(CCCC1CCN(Cc2cccc(O)c2)CC1)c1ccc2c(c1)CCN(Cc1ccccc1)CC2 [Example 157, 4-[1-[(3-Hydroxyphenyl)methyl]-4-piperidinyl]-1-[3-(phenylmethyl)-2,3,4,5-tetrahydro-1H-3-benzazepin-7-yl]-1-butanone]
melting point: 88 to 94 °C

Now from value to compound:

melting point: 165 to 176 °C
Compound: O=C(O)c1ccc(CN2CCC(CCCC(=O)c3ccc4c(c3)CCN(Cc3ccccc3)CC4)CC2)cc1 [Example 183, 4-[[4-[4-[3-(Phenylmethyl)-2,3,4,5-tetrahydro-1H-3-benzazepin-7-yl]-4-oxobutyl]-1-piperidinyl]methyl]benzoic Acid]

melting point: 129 to 132 °C
Compound: Cc1ccccc1CN1CCc2ccc(C(=O)CCCC3CCN(Cc4ccccc4C(=O)O)CC3)cc2CC1 [Example 253, 2-[[4-[4-[3-[(2-Methylphenyl)methyl]-2,3,4,5-tetrahydro-1H-3-benzazepin-,7-yl]-4-oxobutyl]-1-piperidinyl]methyl)benzoic Acid]

melting point: 150 to 152 °C
Compound: Cc1ccccc1CN1CCc2ccc(C(=O)CCCC3CCN(Cc4cccc(C(=N)N)c4)CC3)cc2CC1 [Example 260]

melting point: 103 to 104 °C
Compound: N#Cc1ccccc1CN1CCc2ccc(C(=O)CCCC3CCN(Cc4ccccc4Cl)CC3)cc2CC1 [Example 265, 4-[1-[(2-Chlorophenyl)methyl]-4-piperidinyl]-1-[3-[(2-cyanophenyl)methyl]-2,3 4,5-tetrahydro-1H-3-benzazepin-7-yl]-1-butanone]

melting point: 121 to 122 °C
Compound: N#Cc1cccc(CN2CCc3ccc(C(=O)CCCC4CCN(Cc5ccccc5Cl)CC4)cc3CC2)c1 [Example 267, 4-[1-[(2-Chlorophenyl)methyl]-4-piperidinyl]-1-[3-[(3-cyanophenyl)methyl]-2,3,4,5-tetrahydro-1H-3-benzazepin-7-yl]-1-butanone]
